{
  "source": "PubChem BioAssay AID1963864",
  "about": "(Molecular Pharmacology Branch, DTP, NCI, 2024);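 note: drug exposure lasted seven days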;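 for viability, T/C: 100% = DMSO vehicle wells and lower means fewer viable cells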",
  "system": "KRAS PDC multicell spheroid viability",
  "assay": "Anticancer human tumor 521955-158-R6-J3-PDC patient-derived pancreatic carcinoma cell line growth inhibition [KRAS2]",
  "details": "for IC50: curve of first compound; for viability, T/C: stronger effect = lower value",
  "text": "Multicellular complex tumor spheroid response to RAS pathway inhibitors in combination with a targeted agents in patient-derived cell lines with oncogenic KRAS variants from multiple cancer types\nA high-throughput screen of multi-cell type tumor spheroids was designed to identify active combinations of targeted small molecules and KRAS pathway inhibitors. Complex spheroids include a stromal component modeled by human endothelial cells (HUVEC) and fibroblasts modeled by human mesenchymal stem cells (MSCs). The concentration ranges selected for each drug and investigational agent were based upon clinically achievable concentrations if the clinical Cmax of the agent was known.\nCompounds. The drugs and investigational agents: BI-3406 (NSC825286), BAY-293 (NSC824723), batoprotafib (TNO155; NSC825523), sotorasib (AMG 510; NSC818433), MRTX1257 (NSC819558), elimusertib (BAY 1895344; NSC800525), molibresib (GSK525762; NSC774829), temuterkib (LY3214996; NSC803410), venetoclax (NSC766270), alisertib (NSC759677), olaparib (NSC753686), talazoparib (NSC767125), erdafitinib (NSC781556), ipatasertib (NSC767898), cabozantinib (NSC761068), nintedanib (NSC756659), abemaciclib (NSC768073), docetaxel (NSC628503), trametinib (NSC758246), and sapanisertib (NSC764658) were obtained from the National Cancer Institute (NCI) Developmental Therapeutics Program Chemical Repository. The FDA-approved anticancer drug set is available from the Developmental Therapeutics Program. […] The stock solutions were prepared in dimethyl sulfoxide (DMSO, Sigma-Aldrich, St. Louis, MO, cat. D2650) at 800-fold the tested concentration and stored at -70 degrees C prior to their use. All drugs and investigational agents were tested over a range starting from a high concentration at or near the clinical Cmax and decreasing in half-log increments. If the clinical Cmax for an agent had not been determined, the highest concentration tested was 10 microM.\nCell Culture. All cells were maintained in an incubator at 37 degrees C and 5% CO2 with 95% humidity. The PDC lines were cultured according to standard operating procedures established by the NCI PDMR (https://pdmr.cancer.gov/sops/default.htm). Briefly, all PDCs were thawed and cultured in Matrigel-coated flasks prepared with a working solution of 1X Ham's F-12 nutrient mix, without supplementation (Invitrogen, Waltham, MA, cat. 11765054), 100 U/mL penicillin-streptomycin (Invitrogen, cat. 15140122), and 2.5% Matrigel (Corning Inc., Corning, NY, cat. 354248) for the first three passages. All PDCs were cultured in complete DMEM/F-12 media containing advanced DMEM/F-12 (Invitrogen, cat. 12634028), 4.9% defined fetal bovine serum, heat inactivated (HyClone Laboratories Inc., Logan, UT, cat. SH30070.03HI), 389 ng/mL hydrocortisone (Sigma-Aldrich, cat. H4001), 9.7 ng/mL human EGF recombinant protein (Invitrogen, cat. PHG0313), 23.4 microg/mL adenine (Sigma-Aldrich, cat. A2786), 97.3 U/mL penicillin-streptomycin (Invitrogen, cat. 15140122), 1.9 mM L-glutamine (Invitrogen, cat. 25030081), and 9.7 microM Y-27632 dihydrochloride (Tocris Bioscience, Bristol, United Kingdom, cat. 1254). The PDCs were cultured in complete DMEM/F12 media without 9.7 microM Y-27632 dihydrochloride for at least two passages prior to the screen. The established cell line HOP-62 was cultured in RPMI 1640 medium, HEPES (Invitrogen, cat. 22400105) with 10% defined fetal bovine serum (HyClone Laboratories Inc., cat. SH30070.03) and 2 mM L-glutamine (Invitrogen, cat. 25030081). The pooled donor HUVEC were cultured in endothelial cell growth medium 2 (PromoCell, Heidelberg, Germany, cat. C-22011) and the hMSC were cultured in mesenchymal stem cell growth medium 2 (PromoCell, cat. C-28009). For all experiments, HUVEC and hMSC were used at passages </=5, while the malignant cell lines were used at passages </=15. […]",
  "data": [
    {"smiles": "CC(C)NCC(C(=O)N1CCN(c2ncnc3c2C(C)CC3O)CC1)c1ccc(Cl)cc1", "note": "(stereo not given) + CNCc1ccccc1-c1csc(C(C)Nc2nc(C)nc3cc(OC)c(OC)cc23)c1", "values": [
      {"measurement": "IC50", "setting": "second compound 0.1 µM", "result": "> 10", "unit": "µM"},
      {"measurement": "IC50", "setting": "second compound 0.316 µM", "result": "> 10", "unit": "µM"},
      {"measurement": "IC50", "setting": "second compound 1 µM", "result": "> 10", "unit": "µM"},
      {"measurement": "IC50", "setting": "second compound 3.16 µM", "result": "< 0.0316", "unit": "µM"},
      {"measurement": "IC50", "setting": "second compound 10 µM", "result": "< 0.0316", "unit": "µM"},
      {"measurement": "viability, T/C", "setting": "second compound 0.1 µM, first compound 0.0316 µM", "result": 88.1, "unit": "%"},
      {"measurement": "viability, T/C", "setting": "second compound 0.1 µM, first compound 0.1 µM", "result": 84.2, "unit": "%"},
      {"measurement": "viability, T/C", "setting": "second compound 0.1 µM, first compound 0.316 µM", "result": 74.7, "unit": "%"},
      {"measurement": "viability, T/C", "setting": "second compound 0.1 µM, first compound 1 µM", "result": 69.8, "unit": "%"},
      {"measurement": "viability, T/C", "setting": "second compound 0.1 µM, first compound 3.16 µM", "result": 80.4, "unit": "%"},
      {"measurement": "viability, T/C", "setting": "second compound 0.1 µM, first compound 10 µM", "result": 70.2, "unit": "%"},
      {"measurement": "viability, T/C", "setting": "second compound 0.316 µM, first compound 0.0316 µM", "result": 74.9, "unit": "%"},
      {"measurement": "viability, T/C", "setting": "second compound 0.316 µM, first compound 0.1 µM", "result": 80, "unit": "%"},
      {"measurement": "viability, T/C", "setting": "second compound 0.316 µM, first compound 0.316 µM", "result": 64.8, "unit": "%"},
      {"measurement": "viability, T/C", "setting": "second compound 0.316 µM, first compound 1 µM", "result": 64.5, "unit": "%"},
      {"measurement": "viability, T/C", "setting": "second compound 0.316 µM, first compound 3.16 µM", "result": 66.7, "unit": "%"},
      {"measurement": "viability, T/C", "setting": "second compound 0.316 µM, first compound 10 µM", "result": 63, "unit": "%"},
      {"measurement": "viability, T/C", "setting": "second compound 1 µM, first compound 0.0316 µM", "result": 77.6, "unit": "%"},
      {"measurement": "viability, T/C", "setting": "second compound 1 µM, first compound 0.1 µM", "result": 62.7, "unit": "%"},
      {"measurement": "viability, T/C", "setting": "second compound 1 µM, first compound 0.316 µM", "result": 67.6, "unit": "%"},
      {"measurement": "viability, T/C", "setting": "second compound 1 µM, first compound 1 µM", "result": 64.3, "unit": "%"},
      {"measurement": "viability, T/C", "setting": "second compound 1 µM, first compound 3.16 µM", "result": 66.9, "unit": "%"},
      {"measurement": "viability, T/C", "setting": "second compound 1 µM, first compound 10 µM", "result": 61.4, "unit": "%"},
      {"measurement": "viability, T/C", "setting": "second compound 3.16 µM, first compound 0.0316 µM", "result": 0.31, "unit": "%"},
      {"measurement": "viability, T/C", "setting": "second compound 3.16 µM, first compound 0.1 µM", "result": 0.37, "unit": "%"},
      {"measurement": "viability, T/C", "setting": "second compound 3.16 µM, first compound 0.316 µM", "result": 0.26, "unit": "%"},
      {"measurement": "viability, T/C", "setting": "second compound 3.16 µM, first compound 1 µM", "result": 0.31, "unit": "%"},
      {"measurement": "viability, T/C", "setting": "second compound 3.16 µM, first compound 3.16 µM", "result": 1.96, "unit": "%"},
      {"measurement": "viability, T/C", "setting": "second compound 3.16 µM, first compound 10 µM", "result": 0.86, "unit": "%"},
      {"measurement": "viability, T/C", "setting": "second compound 10 µM, first compound 0.0316 µM", "result": 0.16, "unit": "%"},
      {"measurement": "viability, T/C", "setting": "second compound 10 µM, first compound 0.1 µM", "result": 0.14, "unit": "%"},
      {"measurement": "viability, T/C", "setting": "second compound 10 µM, first compound 0.316 µM", "result": 0.24, "unit": "%"},
      {"measurement": "viability, T/C", "setting": "second compound 10 µM, first compound 1 µM", "result": 0.25, "unit": "%"},
      {"measurement": "viability, T/C", "setting": "second compound 10 µM, first compound 3.16 µM", "result": 0.16, "unit": "%"},
      {"measurement": "viability, T/C", "setting": "second compound 10 µM, first compound 10 µM", "result": 0.27, "unit": "%"}
    ]}
  ]
}
